In the NIST ThermoML archive (doi:10.1016/j.fluid.2009.11.007):

Assay: xn = mol fraction of the nth substance listed
Settings: 313 K, Gas, Vibrating tube method

CCCCCCCCCCCCCCCC(=O)O [hexadecanoic acid] + O=C=O
Settings	mass density [kg/m3]
12110 kPa, x1 = 0.0003534	724.5
12150 kPa, x1 = 0.0003534	725.8
12360 kPa, x1 = 0.0003534	731.2
12530 kPa, x1 = 0.0003534	735.3
12770 kPa, x1 = 0.0003534	741
12930 kPa, x1 = 0.0003534	744.7
13150 kPa, x1 = 0.0003534	749.3
13330 kPa, x1 = 0.0003534	753
13680 kPa, x1 = 0.0003534	759.8
13940 kPa, x1 = 0.0003534	764.4
14120 kPa, x1 = 0.0003534	767.7
14410 kPa, x1 = 0.0003534	772.7
14570 kPa, x1 = 0.0004968	774.5
14650 kPa, x1 = 0.0003534	776.6
14940 kPa, x1 = 0.0005357	780.5
14960 kPa, x1 = 0.0004968	780.9
15030 kPa, x1 = 0.0003534	782.7
15570 kPa, x1 = 0.0003534	790.5
15970 kPa, x1 = 0.0004968	795.6
16020 kPa, x1 = 0.0005357	795.7
16050 kPa, x1 = 0.0003534	797
16230 kPa, x1 = 0.0005357	798.5
16430 kPa, x1 = 0.0005357	801.3
16610 kPa, x1 = 0.0005357	803.4
16820 kPa, x1 = 0.0005357	806
17030 kPa, x1 = 0.0005357	808.5
17040 kPa, x1 = 0.0003534	810.1
17070 kPa, x1 = 0.0006302	809.1
17120 kPa, x1 = 0.0004968	810
17500 kPa, x1 = 0.0006302	814.3
17610 kPa, x1 = 0.0006348	816.9
17620 kPa, x1 = 0.0004968	815.9
17810 kPa, x1 = 0.0006348	819
17970 kPa, x1 = 0.0006302	819.5
18010 kPa, x1 = 0.0006348	821
18030 kPa, x1 = 0.0003534	821.3
18050 kPa, x1 = 0.0004968	820.6
18070 kPa, x1 = 0.0005357	820
18180 kPa, x1 = 0.0006348	823.1
18300 kPa, x1 = 0.0006348	824.3
18400 kPa, x1 = 0.0006348	825.2
18510 kPa, x1 = 0.0006348	826.4
18600 kPa, x1 = 0.0006348	827.4
18700 kPa, x1 = 0.0006348	828.4
18790 kPa, x1 = 0.0006348	829.4
18910 kPa, x1 = 0.0006348	830.6
18990 kPa, x1 = 0.0006302	830.2
19000 kPa, x1 = 0.0004968	830.5
19040 kPa, x1 = 0.0003534	831.8
19070 kPa, x1 = 0.0005357	830.9
19070 kPa, x1 = 0.0006348	832.2
19960 kPa, x1 = 0.0004968	839.8
19990 kPa, x1 = 0.0006302	839.7
20050 kPa, x1 = 0.0003534	841.4
20060 kPa, x1 = 0.0005357	840.4
20090 kPa, x1 = 0.0006348	841.8
20150 kPa, x1 = 0.0007923	843.3
20300 kPa, x1 = 0.0007923	844.6
20540 kPa, x1 = 0.0007923	846.7
20740 kPa, x1 = 0.0007923	848.5
20940 kPa, x1 = 0.0007923	850.2
21000 kPa, x1 = 0.0006302	848.7
21010 kPa, x1 = 0.0006348	849.8
21020 kPa, x1 = 0.0004968	849.3
21040 kPa, x1 = 0.0003534	850.3
21050 kPa, x1 = 0.0005357	849.1
21120 kPa, x1 = 0.0007923	851.7
21300 kPa, x1 = 0.0007923	853.3
21520 kPa, x1 = 0.0007923	855
21700 kPa, x1 = 0.0008682	855
21710 kPa, x1 = 0.0007923	856.7
21970 kPa, x1 = 0.0007923	858.7
21980 kPa, x1 = 0.0003534	858
